From US20250214973A1, “1,4,5-TRISUBSTITUTED-1,2,3-TRIAZOLES AND USES THEREOF” (UNIVERSITY OF PUERTO RICO, priority 2022, published 2025)

Experiments:
Vav2 binding to Rac1 = target: T1, Vav2 binding to Rac1 (Homo sapiens, UniProt P63000, G15A); assay: Rac1 GEF assay, Rac1(G15A) pulldown; settings: 8 μM, MDA-MB-231 lysates
T1 construct: purchased Cell Biolabs, San Diego; CA; host or cells: Vav2 from MDA-MB-231 cell lysate
Protocol: GST-Rac1 (G15A) beads were pre-incubated with vehicle (0.1% DMSO), or 8 μM EHop-016, or 250 nM Compound 4c for 1 hour followed by incubation with MDA-MB-231 cell lysates (equal total protein). Representative Western blot for Rac1(G15A) or pulldowns immunostained for Vav2 is shown (n=3).
MDA-MB-231 cells in culture medium were lysed in 1% Triton X-100, 20 mM HEPES, pH 7.4, 150 mM NaCl, 5 mm MgCl2, and protease inhibitors and processed. Equal amounts of protein from cleared lysates were incubated for 1 h at 4° C. with glutathione-agarose beads conjugated to GST-Rac1(G15A) nucleotide-free mutant (Cell Biolabs, San Diego. CA) that were preincubated (for 1 h) with vehicle or 8 μm EHop-016 or 0.25 μM Compound 4c. The beads were washed, and the lysates and pull-downs were immunoblotted for Tiam-1, Trio, Ect2, p-REX, or Vav2.

MCF-7 = assay: Initial screening, SRB assay GI50; type: cell-based; settings: Homo sapiens, MCF7, 48 hrs
Protocol: (§1) For initial screening, the GIso of compounds 4a-4h in the cell lines MDA-MB-231, MDA-MB-435 and MCF-7 was determined via the SRB-assay for 48 hrs as follows:
(§2) A stock solution of compounds was prepared at 50 mM in 100% DMSO. For cells preparation, a flask of 75 cm^2 or 25 cm^2 were used for 2.6×10^5 cells/mL or 1.44×10^5 cells/mL, respectively, with an 80-90% of confluence. Cells were washed with PBS and trypsinized. The concentration of cells was determined using a 1:2 dilutions with Trypan Blue and a hemocytometer. After cell count, the concentration was adjusted to have a 7.0-10.0×10^4 cells/mL. Approximately 100 μL of cells suspension, compounds, control positive and control negative were added in triplicates to a 96 well plate. Positive control used was doxorubicin, and the negative control was DMSO 0.1%. All compounds (4a-h) at 50, 25, 12.5, 6.3, and 1.6 μM were incubated with cells at 37° C. for 48 hrs. For fixation, cold TCA 50% was used and incubated at 4° C. for 1 h. Wells were washed and dried prior to tincture with 100 μL of SRB 0.4%. To remove excess of SRB, acetic acid was used. For analysis, TRIS-BASE Solution (pH=10.5) was used and shaken prior to reading using an ELISA reader at 540 nm and the software SoftMax Pro 4.8. For each compound, 50% growth inhibition (GI50) was calculated from Sigmoidal dose-response curves (variable-slope) that were generated with data obtained from experiments carried out in triplicates (GI50 values were generated with GraphPad Prism V. 6.02, GraphPad Software, Inc.).

MDA-MB-231 [1] = assay: Initial screening, SRB assay GI50; type: cell-based; settings: Homo sapiens, 48 hrs
Protocol: as §1, §2

MDA-MB-435 [2] = assay: Initial screening, SRB assay GI50; type: cell-based; settings: Homo sapiens, 48 hrs, read-out: MDA-MB435 GI50
Protocol: as §1, §2

MDA-MB-231 [3] = assay: Initial screening, inhibition of migration (wound gap); type: cell-based; settings: Homo sapiens
Protocol: In addition, the inhibition of migration of MDA-MB-231 was determined via the following procedure:
Prior to assays, cells were grown until 80-90% confluence was observed. We used a 75 cm^2 flask for 2.6×10^5 cells/mL in 10 mL and for a 25 cm^2 flask 1.44×10^5 cells/mL in 5 mL. The cells were washed with PBS to remove all traces of FBS. We added 2 mL for a 25 cm^2 flasks or 4 mL for a 75 cm^2 flasks trypsin, and incubated 5-10 min at 37° C. At the end of the incubation time, cells were re-suspended and counted with hemocytometer using 1:2 dilutions with Trypan blue. Subsequently, cell viability was calculated. In a 12 well tissue culture plate, we used the plastic pattern to draw a fine space with a fine marker on the bottom of the plate. Cells were seeded at 1.5-2.2×10^5 cells/mL in 1 mL and incubated for 24 h. Cells were then rinsed with PBS and incubated in starving media (0.5% FBS) overnight. All controls and drugs were tested in triplicate. The negative control for each drug was prepared according to the drug's DMSO concentration. […] The wound was made using a sterile pipette tip of 200 μL. Cells were then rinsed very gently with media without FBS and media with negative controls was added. After a 24 h incubation, the gap distance was evaluated using the software Lumera Infinity Analyze 6.4.0. Pictures were taken at 0, 8, 12 and 24 h using a 10× objective in an Inverted Laboratory Microscope Leica DM IL LED, and an Infinity1-3 3.1 Megapixel USB 2.0 camera CMOS. The percentage of migration was calculated using the following formula: […]

MDA-MB-468 [4] = assay: Apoptosis assay, caspase 3/7 activity; type: cell-based; settings: 500 nM, 48 hours
Protocol: (§3) Cells plated at equal density were treated at 500 nM of compounds. After 48 hours, caspase 3/7 activity was measured by luminescence. n=3; * p<0.05, ** p<0.01.
(§4) Equal number of cells were seeded incubated with vehicle or compounds according to this disclosure at 250 or 500 nM for 48 hrs. Apoptosis was measured using a Caspase-Glo3/7 Luminescence Assay Kit as per manufacturer's instructions (Promega, Corp.). Briefly, Caspase-3/7 Glo reagent was added and incubated at room temperature for 60 min and Caspase-3/7 activities were determined by detecting luminescence using Tecan Microplate Reader M100. (n=3 biologic replicates: with 3 technical replicates each).

MDA-MB-231 [5] = assay: Apoptosis assay, caspase 3/7 activity; type: cell-based, human; settings: 500 nM, 48 hours
Protocol: as §3, §4

MDA-MB-435 [6] = assay: Apoptosis assay, caspase 3/7 activity; type: cell-based, human; settings: 500 nM, 48 hours
Protocol: as §3, §4

MDA-MB-468 [7] = assay: Cell viability assay (MTT); type: cell-based; settings: 500 nM, 72 hours
Protocol: (§5) Cells plated at equal density were treated at 500 nM of compounds. After 72 hours, cell viability was measured by a MTT assay. n=3; * p<0.05, ** p<0.01, *** p<0.001.
(§6) Equal number of cells were seeded in a 24 well plate and incubated with vehicle or compounds according to this disclosure at concentrations between 1 and 0.001 nM for 72 and 120 hrs. Using CellTiter 96 Non-Radioactive Cell Proliferation Assay (Promega, Corp.) according to manufactures' instructions, formazan was used as an indicator of viable cells at an absorbance 570 nm in a Tecan Microplate Reader M100. Data was calculated as fold change from vehicle and fitted using the 4′parameter logic nonlinear regression model in GraphPad Prism software. (n=3 biologic replicates: with 3 technical replicates each).

MDA-MB-435 [8] = assay: Cell viability assay (MTT); type: cell-based, human; settings: for GI50: read-out: GI50 MDA-MB-435
Protocol: as §5
(§7) Cells plated at equal density were treated at 250 nM of 4c at 250 nM.
(§8) Data from 3 biologic replicates each with 2 technical replicates. Four parameter dose-response curves generated using GraphPad Prism are shown.
[…]. GI50 was calculated using Graph pad Prism.
as §6, with “Equal number of cells were seeded in a 24 well plate and incubated with vehicle or compounds according to this disclosure at concentrations between 1 and 0.001 nM for 72 and 120 hrs.” left out
A range of compounds were tested by MTT assays for cell viability in MDA-MB-231 triple negative breast cancer (TNBC) cells and MDA-MB-435 HER2++ cancer cells. […].

Panc-1 [9] = assay: Cell viability assay (MTT); type: cell-based; settings: Homo sapiens, 120 hours, 0-1000 nM
Protocol: as §6, with “Equal number of cells were seeded in a 24 well plate and incubated with vehicle or compounds according to this disclosure at concentrations between 1 and 0.001 nM for 72 and 120 hrs.” left out

MDA-MB-231 [10] = assay: Cell viability assay (MTT); type: cell-based; settings: Homo sapiens; for inhibition at […]: MDA-MB-231, 250 nM for 48 hours (footnote a; title says 500 nM), read-out: % growth inhibition MDA-MB-231; for cytotoxicity at […]: 250 nM, 48h, text prints MDA-MB-435 TNBC, read-out: inhibition of cell viability
Protocol: Cells plated at equal density were treated at 500 nM of compounds. […]
as §7, §8
Cell viability relative to vehicle (100%) is shown.
as §6, with “Equal number of cells were seeded in a 24 well plate and incubated with vehicle or compounds according to this disclosure at concentrations between 1 and 0.001 nM for 72 and 120 hrs.” left out
A range of compounds were tested by MTT assays for cell viability in MDA-MB-231 triple negative breast cancer (TNBC) cells and MDA-MB-435 HER2++ cancer cells.

[11] = tested on: RAW264.7 macrophage cell line; assay: Wound healing assay; type: cell-based, murine; settings: Mus musculus, read-out: inhibition of wound closure, RAW264.7
Protocol: (§9) Mircrographs were digitally acquired at 0, 12, and 24 hours and the area of the wound quantified relative to the distance at time 0. n=3.
Murine macrophage cell line, RAW264.7, plated at equal density were subjected to a scratch in the center and treated with 4c at 0, 150 nM, 250 nM, or 500 nM. Mircrographs were digitally acquired at 0, 12, and 24 hours and the area of the wound quantified relative to the distance at time 0. n=3.

Panc-1 [12] = assay: Wound healing assay; type: cell-based; settings: Homo sapiens, 24 hr, read-out: inhibition of Panc-1 cell migration
Protocol: as §9
Panc-1 cells plated at equal density were subjected to a scratch in the center and treated with 4c at 0, 150 nM, 250 nM, or 500 nM. Mircrographs were digitally acquired at 0, 12, and 24 hours and the area of the wound quantified relative to the distance at time 0. n=3.

Rac = Rac activation pulldown (GST-CRIB of PAK) in MDA-MB-435 cells; type: cell-based, human; settings: 24 hours
Description: (§10) Cells were lysed and equal amounts of proteins were subjected to pull-down assays using a GST-fusion protein of the Cdc42-rac interactive binding (CRIB) domain of P21-activated kinase (PAK). The pulldowns of Rac.GTP and whole cell lysates were western blotted with a pan Rac1/2/3 antibody.
as §10

Structure (SMILES): CCn1c2ccccc2c2cc(Nc3ccnc(NCCCN4CCOCC4)n3)ccc21 [EHop-016, reference compound]
- inhibition of Vav2 binding to Rac1 (Vav2 binding to Rac1): ~80%

Structure (SMILES): CCn1c2ccccc2c2cc(-n3nnc(C(O)c4cccnc4)c3-c3ccccc3)ccc21 (stereo not drawn) [Compound 4b, (1-(9-ethyl-9H-carbazol-3-yl)-5-phenyl-1H-1,2,3-triazol-4-yl) (pyridin-3-yl) methanol]
- GI50 (MCF-7): 0.04 µM
- GI50 (MDA-MB-231 [1]): 8 µM
- GI50 (MDA-MB-435 [2]): 0.08 µM
- inhibition at 0.5 µM (MDA-MB-231 [3]; at 0.5 μM, read-out: Inh. of migration (converted)): 25.2%
- inhibition at 1.6 µM (MDA-MB-231 [3]; at 1.6 μM, read-out: Inh. of migration): 61.4 ± 9.08%
- Caspase 3/7 activity, MDA-MB-468 (MDA-MB-468 [4]): significantly increased
- Caspase 3/7 activity compared to the vehicle, MDA-MB-231 (MDA-MB-231 [5]): increased apoptosis
- Caspase 3/7 activity compared to the vehicle, MDA-MB-435 (MDA-MB-435 [6]): increased apoptosis
- effect on cell viability, MDA-MB-468 (MDA-MB-468 [7]): inhibited cell viability
- effect on cell viability, MDA-MB-435 (MDA-MB-435 [8]; 500 nM): inhibited cell viability
- cytotoxicity at 0.5 µM (MDA-MB-435 [8]; Homo sapiens, MDA-MB-435, 500 nM, 72 hours, read-out: decrease in cell viability, MDA-MB-435): ~80%

Structure (SMILES): CCn1c2ccccc2c2cc(-n3nncc3-c3ccccc3)ccc21 (racemic) [MBQ-167, reference compound]
- GI50 (Panc-1 [9]): 0.155 µM
- inhibition at […] (MDA-MB-231 [10]): 36%
- cytotoxicity at […] (MDA-MB-231 [10]): ~40%
- inhibition at 0.15 µM ([11]; 150 nM): 30%
- inhibition at […] ([11]; 250 nM): 30%
- GI50 (MDA-MB-435 [8]; Homo sapiens, MDA-MB-435, 72 h): 0.145 µM
- inhibition at […] (Panc-1 [12]; 250 nM): 40%
- inhibition at 0.5 µM (Panc-1 [12]; 500 nM): 50%

Structure (SMILES): CCn1c2ccccc2c2cc(-n3nnc(C#N)c3-c3ccccc3)ccc21 [Compound 5, 1-(9-ethyl-9H-carbazol-3-yl)-5-phenyl-1H-1,2,3-triazole-4-carbonitrile]
- inhibition at […] (MDA-MB-231 [10]): 46%
- cytotoxicity at […] (MDA-MB-231 [10]): 50%
- % Rac inhibition (Rac; 10 nM): ~30%
- % Rac inhibition (Rac; 50 nM): > 90%
- % Rac inhibition (Rac; 100 nM): > 90%
- GI50 (MDA-MB-435 [8]; Homo sapiens, MDA-MB-435, MTT, 72 hrs, 0-1000 nM): 0.045 µM
- cytotoxicity relative to MBQ-167 (MDA-MB-435 [8]; MDA-MB-435, 72 h GI50): ~3 ×
